Experimental data reported in publication PMC4727417, “Characterization of a novel 8R,11S-linoleate diol synthase from Penicillium chrysogenum by identification of its enzymatic products” (Journal of Lipid Research, 2016).

How the values were obtained:
[1] = target: T1, 8R,11S-linoleate diol synthase (8R,11S-LDS; PC_1) (Penicillium rubens, UniProt B6HQI5); assay: UV-visible spectroscopy, heme/protein absorption ratio (A410/A280); type: binding; conditions: heme occupancy of the purified enzyme
T1 construct: gene Pc22g06980; full length, 1,074 residues, C-terminal His6 (pET-21a), E. coli ER2566, HisTrap purified; calculated 120,998 Da; N-terminal DOX domain 1-669, C-terminal P450 hydroperoxide isomerase domain 670-1074

[2] = target: T1, 8R,11S-linoleate diol synthase (8R,11S-LDS; PC_1); assay: O2 uptake, Clark-type oxygen monitor, Hanes-Woolf plot; type: biochemical; conditions: DOX activity (N-terminal dioxygenase domain of the whole enzyme); co-substrate O2; 50 mM EPPS pH 8.0, 25°C
[3] = target: T1, 8R,11S-linoleate diol synthase (8R,11S-LDS; PC_1); assay: HPLC of dihydroxy fatty acid product, Hanes-Woolf plot; type: biochemical; conditions: whole enzyme activity: overall conversion to dihydroxy fatty acid by sequential DOX and hydroperoxide isomerase domains; 25°C, 50 mM EPPS pH 8.0
[4] = substrate: CCCCCC/C=C\CCCCCCCC(=O)O; assay: O2 uptake, Clark-type oxygen monitor, Hanes-Woolf plot; type: biochemical, Penicillium rubens; conditions: DOX activity (N-terminal dioxygenase domain of the whole enzyme), co-substrate O2, 50 mM EPPS pH 8.0, 25°C
Source text: O2 uptake, Clark-type oxygen monitor, Hanes-Woolf plot on 8R,11S-linoleate diol synthase (8R,11S-LDS; PC_1)

Row | Molecule | Km [2] | Km [3] | other results
1 | C=CC1=C(C)C2=Cc3c(C=C)c(C)c4[n]3[Fe][n]3c(c(C)c(CCC(=O)O)c3=CC3=NC(=C4)C(C)=C3CCC(=O)O)=CC1=N2 [heme] | – | – | UV-visible spectroscopy, heme/protein absorption ratio (A410/A280) [1]: Heme occupancy of the wild-type and H999A, C1001S, and H999A-C1001S variant enzymes
2 | 8R,11S-linoleate diol synthase (8R,11S-LDS; PC_1) (Penicillium rubens Wisconsin 54-1255) (protein, full length, 1,074 residues, C-terminal His6 (pET-21a), E. coli ER2566, HisTrap purified; calculated 120,998 Da; N-terminal DOX domain 1-669, C-terminal P450 hydroperoxide isomerase domain 670-1074) MAEKESNSSGKIAQLEQVVAAALRPLPTQTGDGSYVQEPTVTGLAKDLLNFDLKDAKTLADMAKTAVTGKAVNDRDYIMERVIQLASGLPSTSRNGKELTNTFLTQLWGDLEHPPISYLGRDAAYRKADGSGNNTFWPQIGAANTPYARSVRPKTMQPVALPEPEALFDSLLARKDFKEHPNKISSVLFHLASIIIHDLFQTDPRDQTKSLTSSYLDLSPLYGNNQKEQDTVRAFKDGKLKPDCFSTKRVLGFPPGVGVILIMFNRFHNSVVTQLAAINEGGRFTKPDESNAEAYATWDNDLFQTARLVTCGLYINIILKDYVRTILNVNRTDSLWSLDPRADIRDGLLGEAPAQATGNQVSAEFNLVYRWHSCVSSRDEKWSEDLYKEIFDGKDPKEISMQQFTGGLRQWESKLPADPQERPFAKLQRQADGKFDDNDLVKIFEESVEDPAGAFGALNVPDVFRGIEVLGIKQARSWNLATLNEFRQYFGLAAYQTFEEINPDPYVANQLKHFYDHPDLVELYPGLVVEETKQAMTPGSGLCTNFTTSRAILSDAVALVRGDRFYTVDFTPKHLTNWAFNEINNDVSVDGGQVFYKLILKAFPNHFRGDSVYAHFPLVVPDENKKILTSLGKVKTYSFDRPFYKAPPLFINSHSACTKILKDQEGFKVVWGEKIQFLMENSGRPYGRDFALSGDLPANAASRKMIGAALHRDKWESEVKAFYEDITLKLLERNSFKVAGVNQVDIVRDVAVLAQVNFCANVFSLSLKTESNPRGVFSEQELYQILAVIFASIFYDVDVSKSLQLCQTARNVAQQLGELTLANVELVAKTGFISNLVNRLHRHDILSEYGIHMIQRLLDSQLPVKDVVWSHILPTAGALVANQGQLFSQCIDYYLSEEAAEHLAEIQRLSREDTPEADELLVRYFMEGARLRCSVALPRFATKPTVVDDNGKRVTLKAGQEIICNLVVAGRDPVAFPDPDKVRLDRDMSLYTHFGFGPHECLGVKMCPLALSTMLKVLGRLDNVRRAPGPQGHLKRLDGLGGIAMYMDAEHSSFSPFPMTMKIQWDGDLPARRE | – | – | Km [4]: 20.0 ± 0.5 µM; kcat [4]: 81.8 ± 3.77 s⁻¹; kcat/Km [4]: 4.32e+06 M⁻¹ s⁻¹

Further lines, with some results ahead:

Row | Km [2] | Km [3] | Molecule | other results
3 | 18.9 ± 0.6 µM | 86.1 ± 1.8 µM | CCCCC/C=C\C/C=C\CCCCCCCC(=O)O [linoleic acid] | –
4 | 69.9 ± 0.3 µM | 138 ± 3.2 µM | CC/C=C\C/C=C\C/C=C\CCCCCCCC(=O)O [α-linolenic acid] | –
5 | 34.3 ± 1.2 µM | – | CCCCCCCC/C=C\CCCCCCCC(=O)O [oleic acid] | –
